From BigSolDB 2.1

CN/C(=C\[N+](=O)[O-])NCCSCc1csc(CN(C)C)n1
solubility (mole fraction)
Conditions	in acetone	in ethanol	in ethyl acetate	in methanol	in water
273.15 K	0.00283	0.00287	0.00029	0.0167	0.0225
278.15 K	0.0034	0.00381	0.00033	0.0211	0.0232
283.15 K	0.00432	0.00487	0.00043	0.027	0.0238
288.15 K	0.00552	0.00653	0.00058	0.0347	0.0247
293.15 K	0.00701	0.00867	0.00063	0.0447	0.0257
298.15 K	0.00806	0.0133	0.00082	0.0589	0.0297
303.15 K	0.0103	0.0167	0.00093	0.0765	0.0325
308.15 K	0.0128	0.0212	0.00148	0.103	0.036
313.15 K	0.0164	0.0301	0.00187	0.147	0.0402
318.15 K	0.0235	0.0376	0.00219	0.203	0.0463
323.15 K	0.0385	0.062	0.00269	–	0.0535
328.15 K	–	0.0955	0.00343	–	0.0653
333.15 K	–	0.179	0.0042	–	0.0809
338.15 K	–	–	0.0055	–	0.109
343.15 K	–	–	–	–	0.164
